Test results: article PMC11555678, “Improved Broad Spectrum Antifungal Drug Synergies with Cryptomycin, a Cdc50-Inspired Antifungal Peptide” (ACS Infectious Diseases, 2024)
In brackets after ≈: the same amount, converted by molar mass. Where two headings read alike, the source gives them in different places. Square brackets hold non-standard residues; d marks the D form. Ends that are not written are not given here. Peptide text beside a SMILES is read from it. * marks the point of attachment. Myristoyl = CCCCCCCCCCCCCC(=O)*; Orn = NCCC[C@H](N)C(=O)O

Experiments:
[1] = system: C. neoformans H99; type: cell-based, Cryptococcus neoformans; details: 2× MIC; subsequent rebound of the population through 8 h; RPMI1640, 30 °C
Description: Culture tubes were prepared with aliquots of 2.0 mL of RPMI1640 (containing Q, MOPS, pH = 7, no phenol red). The tubes were sealed to prevent evaporation and were equilibrated with the incubation chamber overnight, at 30 °C. On the day of the experiment, overnight yeast cultures in YPD were washed twice with DD-H2O and resuspended in DD-H2O. The OD600 of the cell suspension was adjusted to 4.6, ≈2 × 10^6 cfu/mL, in DD-H2O. A 200 μL aliquot of adjusted cell suspension was added systematically to each tube, followed by 200 μL sampling for the 0 h time point. Immediately after sampling, the antifungal compounds were added, and the tubes were placed in the incubator at 30 °C with shaking at 225 rpm. The sampled aliquot was transferred to a 96-well plate and serially diluted six times, 10-fold each time. The resulting cell suspensions were spotted onto YPD plates in a grid pattern of 5 μL per spot. Subsequently, tubes were briefly removed from the incubator, and 100 μL aliquots were sampled at 2, 4, 6, and 8 h time points. Cells were counted on the YPD plates at either 24 or 48 h after plate spotting, depending on when the colonies were countable. Images of the YPD plates were recorded on the Bio-Rad Gel imager after 48 h of incubation at 30 °C. […] 2 C = number of colonies counted, Df = dilution factor = 10^n–1, n = column that the cells were counted, and Vf = volume factor = 1/0.005 mL.

[2] = system: C. auris B11245; assay: microbe, parasite or virus in culture; type: cell-based, Candida auris; details: compound alone; RPMI1640, 37 °C, 48 h; * = paradoxical growth observed (CAS)
Description: (§1) All microdilution assays with fungi were carried out in accordance with CLSI protocols from M27 for yeasts and M38 for filamentous fungi, respectively, unless otherwise specified.[64],[65] Briefly, 96-well plates were charged with RPMI1640 media, with operating volume in the first column, 200 μL, and half operating volume, 100 μL, in the remaining wells. Drug stock solution in DMSO was aliquoted into the first well in each row. Half of the volume in the dosed well was serially diluted 2-fold until column 11. Column 11 was used as the negative growth control, and column 12 was used as the positive growth control. ON yeast cultures in YPD were washed twice in DD-H2O, resuspended in PBS, and adjusted to 5000 cfu/mL in RPMI. The 96-well plate was inoculated with 100 μL aliquots of cell suspension per well. Plates were incubated at 37 °C for 2 days.

[3] = system: C. glabrata FKS1-S629P; assay: microbe, parasite or virus in culture; type: cell-based, Candida glabrata; details: compound alone; RPMI1640, 37 °C, 48 h
Description: as §1

[4] = system: C. glabrata 2001; assay: microbe, parasite or virus in culture; type: cell-based, Candida glabrata
Description: as §1

[5] = system: C. glabrata FKS2-S663P; assay: microbe, parasite or virus in culture; type: cell-based, Candida glabrata; details: compound alone; RPMI1640, 37 °C, 48 h
Description: as §1

[6] = system: Cn H99; assay: microbe, parasite or virus in culture; type: cell-based, Cryptococcus neoformans; details: 37 °C, 48 h
Description: (§2) Previous studies have shown that modifying microbiological media with salts such as CaCl2 can have a drastic effect on the growth of fungi and their responses to antifungals.[19],[35] In the case of CaCl2, the divalent cation, Ca^2+, is involved in fungal cell stress response. To understand how the peptide activity may involve calcium and stress response, the MICs of KKOO, KKOO-NH2, FLC, and CAS were assessed as a function of the calcium concentration in liquid YPD media. It was observed that calcium enrichment completely desensitized the wild-type strain to KKOO and KKOO-NH2, Tables 7 and 8, respectively. Effects of calcium enrichment on the susceptibility of Cryptococcus to CAS similar to literature values were recorded, Supporting Information, Table S7.[35]
(§3) In order to control for the effects of enriching YPD with a divalent cation, MICs and ROS production were also measured as a function of the MgCl2 supplement at the same millimolar concentrations of cation as in the CaCl2-modified experiments. […] No peptide susceptibility changes were observed against Cn cdc50Δ in magnesium-enriched media, Table S9. ROS production in H99 induced by peptide exposure was inhibited after 30 min of treatment in the magnesium-enriched condition, similar to the levels observed in the calcium-enriched media at 16 μg/mL KKOO-NH2, Figure S1. […] The link between peptide activity and calcium homeostasis may be vital in understanding precisely how the peptide kills fungal cells and requires more research to elucidate.
as §1

[7] = system: Cn cdc50Δ; assay: microbe, parasite or virus in culture; type: cell-based, Cryptococcus neoformans; details: 37 °C, 48 h
Description: as §2, §3, §1

[8] = system: Cn Crm1-oe; assay: microbe, parasite or virus in culture; type: cell-based, Cryptococcus neoformans; details: YPD + 0 mM Ca2+, 37 °C, 48 h
Description: as §2, §1

[9] = system: Cn crm1Δ; assay: microbe, parasite or virus in culture; type: cell-based, Cryptococcus neoformans; details: YPD + 0 mM Ca2+, 37 °C, 48 h
Description: as §2, §1

[10] = system: Cn apt1Δ; assay: microbe, parasite or virus in culture; type: cell-based, Cryptococcus neoformans; details: 37 °C, 48 h
Description: as §2, §1

[11] = system: C. albicans SC5413; assay: microbe, parasite or virus in culture; type: cell-based, Candida albicans
Description: as §1

[12] = system: C. neoformans apt2Δ; assay: microbe, parasite or virus in culture; type: cell-based, Cryptococcus neoformans; details: compound alone; RPMI1640, 37 °C, 48 h
Description: as §1

[13] = system: C. neoformans H99; assay: microbe, parasite or virus in culture; type: cell-based, Cryptococcus neoformans
Description: as §1

[14] = system: C. neoformans MRL862; assay: microbe, parasite or virus in culture; type: cell-based, Cryptococcus neoformans; details: compound alone; RPMI1640, 37 °C, 48 h
Description: as §1

[15] = system: C. neoformans crm1Δ; assay: microbe, parasite or virus in culture; type: cell-based, Cryptococcus neoformans; details: compound alone; RPMI1640, 37 °C, 48 h
Description: as §1

[16] = system: C. neoformans apt4Δ; assay: microbe, parasite or virus in culture; type: cell-based, Cryptococcus neoformans; details: compound alone; RPMI1640, 37 °C, 48 h
Description: as §1

[17] = system: C. neoformans apt1Δ; assay: microbe, parasite or virus in culture; type: cell-based, Cryptococcus neoformans; details: compound alone; RPMI1640, 37 °C, 48 h
Description: as §1

[18] = system: C. neoformans cdc50Δ; assay: microbe, parasite or virus in culture; type: cell-based, Cryptococcus neoformans
Description: as §1

[19] = system: C. neoformans Crm1^OE; assay: microbe, parasite or virus in culture; type: cell-based, Cryptococcus neoformans; details: compound alone; RPMI1640, 37 °C, 48 h
Description: as §1

[20] = system: C. neoformans apt3Δ; assay: microbe, parasite or virus in culture; type: cell-based, Cryptococcus neoformans; details: compound alone; RPMI1640, 37 °C, 48 h
Description: as §1

[21] = system: A. fumigatus AF293; assay: microbe, parasite or virus in culture; type: cell-based, Aspergillus fumigatus; details: compound alone; RPMI1640, 37 °C, 48 h; * = paradoxical growth observed (CAS)
Description: as §1

[22] = system: C. neoformans H99; parameters: method as in PMID 35377230; details: with CAS, additive drug synergy; cited from earlier work
Description: We endeavored to develop an inhibitor to target flippase function in Cn and harness the critical importance of Cdc50 in antifungal drug resistance and virulence. […] The peptide sequence was identified using an epitope approach. First, anti-Cdc50 polyclonal antibodi ...

[23] = system: C. neoformans H99; details: previously published peptide; cited from earlier work
[24] = Table S1, unit and conditions not given (MICs elsewhere in μg/mL)
[25] = compound alone, RPMI1640, 37 °C, 48 h

In the case of `CCCCCCCCCCCCCC(=O)N[C@@H](Cc1c[nH]c2ccccc12)C(=O)NCC(=O)NCC(=O)N[C@H](C(=O)N[C@@H](CCCN)C(=O)N[C@@H](CCCN)C(=O)N[C@@H](CC(N)=O)C(=O)N[C@@H](Cc1ccc(O)cc1)C(=O)N[C@@H](C)C(=O)O)[C@@H](C)CC` [KKOO] (Myristoyl-WGGI[Orn][Orn]NYA-OH), the “time of peak killing activity” value [1] is reported as ≤ 2 h, the MIC [2] is reported as > 128 µg/mL and the MIC [3] is reported as 16 µg/mL (≈ 13.1 µM). The “MIC (SAR screen peptides)” value [4, 24] was 16, the MIC [4, 25] was 16 µg/mL (≈ 13.1 µM) and the MIC [5] was 16 µg/mL (≈ 13.1 µM). The MIC ([6]; YPD + 0 mM Ca2+) was 32 µg/mL, the MIC ([6]; YPD + 0 mM Mg2+) was 16 µg/mL and the MIC ([6]; YPD + 2.5 mM Ca2+) was >128 µg/mL. For the same compound, the MIC ([6]; YPD + 2.5 mM Mg2+) was 32 µg/mL, the MIC ([6]; YPD + 5 mM Ca2+) was >128 µg/mL and the MIC ([6]; YPD + 5 mM Mg2+) was 32 µg/mL. For the same compound, the MIC ([6]; YPD + 10 mM Ca2+) was >128 µg/mL, the MIC ([6]; YPD + 10 mM Mg2+) was 32 µg/mL and the MIC ([6]; YPD + 20 mM Ca2+) was >128 µg/mL. It also gave an MIC ([6]; YPD + 20 mM Mg2+) of 128 µg/mL, an MIC ([7]; YPD + 0 mM Ca2+) of 4 µg/mL and an MIC ([7]; YPD + 0 mM Mg2+, unit inferred) of 8 µg/mL. The MIC ([7]; YPD + 2.5 mM Ca2+) was 8 µg/mL, the MIC ([7]; YPD + 2.5 mM Mg2+, unit inferred) was 8 µg/mL and the MIC ([7]; YPD + 5 mM Ca2+) was 8 µg/mL. It also gave an MIC ([7]; YPD + 5 mM Mg2+, unit inferred) of 8 µg/mL, an MIC ([7]; YPD + 10 mM Ca2+) of 8 µg/mL and an MIC ([7]; YPD + 10 mM Mg2+, unit inferred) of 4 µg/mL. It also gave an MIC ([7]; YPD + 20 mM Ca2+) of 8 µg/mL, an MIC ([7]; YPD + 20 mM Mg2+, unit inferred) of 8 µg/mL and an MIC [8] of 8 µg/mL. The MIC [9] was 8 µg/mL, the MIC ([10]; YPD + 0 mM Ca2+) was 8 µg/mL and the MIC ([10]; YPD + 2.5 mM Ca2+) was 32 µg/mL. For the same compound, the “MIC (SAR screen peptides)” value [11, 24] was 16, the MIC [11, 25] was 32 µg/mL (≈ 26.3 µM) and the MIC [12] was 8 µg/mL (≈ 6.57 µM). The “MIC (SAR screen peptides)” value [13, 24] was 16, the MIC [13, 25] was 16 µg/mL (≈ 13.1 µM) and the MIC [14] was 8 µg/mL (≈ 6.57 µM). For the same compound, the MIC [15] was 8 µg/mL (≈ 6.57 µM), the MIC [16] was 8 µg/mL (≈ 6.57 µM) and the MIC [17] was 4 µg/mL (≈ 3.28 µM). The “MIC (SAR screen peptides)” value [18, 24] was 4, the MIC [18, 25] was 4 µg/mL (≈ 3.28 µM) and the MIC [19] was 8 µg/mL (≈ 6.57 µM). The MIC [20] was 8 µg/mL (≈ 6.57 µM) and the MIC [21] was > 128 µg/mL.

In the case of AW9-Ma (Myristoyl-WGGIKKNYA), the “fractional inhibition concentration (FIC) index” value [22] is given as 0.5 and the MIC [23] is given as 64 µg/mL.
